Patent US10745382B2 (BRISTOL-MYERS SQUIBB COMPANY, priority 2015, dated 2020)
pIC50: −log10 of the molar value. Read-outs that look alike come from different tables or passages of the source.

Target: T1, PD-1/PD-L1 (Homo sapiens, UniProt Q9NZQ7)
T1 construct: made in house; host or cells: HEK293T
Test: PD-1/PD-L1 Homogenous Time-Resolved Fluorescence (HTRF) binding assay
Conditions: PD-L1-His 10 nM, PD-1-Ig 20 nM, read-out: Range or IC50; for pIC50: value given as range class
How it was run: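 Compounds are tested for blocking the PD-1/PD-L1 interaction in dPBS supplemented with 0.1% BSA and 0.05% (v/v) Tween-20. Tagged proteins are detected with Eu-cryptate anti-Ig and APC anti-His at 1 and 20 nM final.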

T1 sequence (Q9NZQ7 with tags, fused parts or gaps): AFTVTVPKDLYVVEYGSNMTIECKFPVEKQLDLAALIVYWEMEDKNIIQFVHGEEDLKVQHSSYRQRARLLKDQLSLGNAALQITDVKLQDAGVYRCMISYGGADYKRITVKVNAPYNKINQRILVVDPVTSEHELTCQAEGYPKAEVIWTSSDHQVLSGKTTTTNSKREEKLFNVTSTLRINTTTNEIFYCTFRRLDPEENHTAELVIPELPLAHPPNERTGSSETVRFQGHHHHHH

| pIC50 | IC50 (numeric IC50, cell prints uM) [µM] | SMILES |
| --- | --- | --- |
| 8.00 to 9.68 | – | N#Cc1cncc(COc2cc(OCc3cccc(-c4cccc(OCCCN5CC[C@@H](O)C5)c4Cl)c3Cl)c(Cl)cc2CN2CCCC[C@H]2C(=O)O)c1 [Example 2106, (S)-1-(5-chloro-2-((5-cyanopyridin-3-yl)methoxy)-4-((2,2′-dichloro-3′-(3-((R)-3-hydroxypyrrolidin-1-yl)propoxy)-[1,1′-biphenyl]-3-yl)methoxy)benzyl)piperidine-2-carboxylic Acid] |
| 8.00 to 9.68 | – | CC(CO)(CO)NCc1cc(Cl)c(OCc2cccc(-c3cccc(OCCCN4CC[C@@H](O)C4)c3Cl)c2Cl)cc1OCCC(F)(F)F [Example 2107, (R)-2-((5-chloro-4-((2,2′-dichloro-3′-(3-(3-hydroxypyrrolidin-1-yl)propoxy)-[1,1′-biphenyl]-3-yl)methoxy)-2-(3,3,3-trifluoropropoxy)benzyl)amino)-2-methylpropane-1,3-diol] |
| 8.00 to 9.68 | – | CN(C)CCOc1cc(OCc2cccc(-c3cccc(OCCCN4CC[C@@H](O)C4)c3Cl)c2Cl)c(Cl)cc1CNC(C)(CO)CO [Example 2108, (R)-2-((5-chloro-4-((2,2′-dichloro-3′-(3-(3-hydroxypyrrolidin-1-yl)propoxy)-[1,1′-biphenyl]-3-yl)methoxy)-2-(2-(dimethylamino)ethoxy)benzyl)amino)-2-methylpropane-1,3-diol] |
| 8.00 to 9.68 | – | COCC(COC)NCc1cc(Cl)c(OCc2cccc(-c3cccc(OCCCN4CC[C@@H](O)C4)c3Cl)c2C)cc1OCc1cncc(C#N)c1 [Example 2109, (R)-5-((4-chloro-5-((2′-chloro-3′-(3-(3-hydroxypyrrolidin-1-yl)propoxy)-2-methyl-[1,1′-biphenyl]-3-yl)methoxy)-2-(((1,3-dimethoxypropan-2-yl)amino)methyl)phenoxy)methyl)nicotinonitrile] |
| 8.00 to 9.68 | – | Cc1c(COc2cc(OCc3cncc(C#N)c3)c(CNC3(CO)COC3)cc2Cl)cccc1-c1cccc(OCCCN2CC[C@@H](O)C2)c1Cl [Example 2110, (R)-5-((4-chloro-5-((2′-chloro-3′-(3-(3-hydroxypyrrolidin-1-yl)propoxy)-2-methyl-[1,1′-biphenyl]-3-yl)methoxy)-2-(((3-(hydroxymethyl)oxetan-3-yl)amino)methyl)phenoxy)methyl)nicotinonitrile] |
| 8.00 to 9.68 | – | CCN(Cc1cc(Cl)c(OCc2cccc(-c3cccc(OCCCN4CC[C@@H](O)C4)c3Cl)c2C)cc1OCc1cncc(C#N)c1)C(CO)CO [Example 2111, (R)-5-((4-chloro-5-((2′-chloro-3′-(3-(3-hydroxypyrrolidin-1-yl)propoxy)-2-methyl-[1,1′-biphenyl]-3-yl)methoxy)-2-(((1,3-dihydroxypropan-2-yl)(ethyl)amino)methyl)phenoxy)methyl)nicotinonitrile] |
| 8.00 to 9.68 | – | CC(CO)(CO)NCc1cc(Cl)c(OCc2cccc(-c3cccc(OCCCN4CC[C@@H](O)C4)c3Cl)c2Cl)cc1OCc1cc(Cl)ccc1Cl [Example 2112, (R)-2-((5-chloro-4-((2,2′-dichloro-3′-(3-(3-hydroxypyrrolidin-1-yl)propoxy)-[1,1′-biphenyl]-3-yl)methoxy)-2-((2,5-dichlorobenzyl)oxy)benzyl)amino)-2-methylpropane-1,3-diol] |
| 8.00 to 9.68 | – | Cc1c(COc2cc(OCc3cncc(C#N)c3)c(CN(CC3CC3)C(CO)CO)cc2Cl)cccc1-c1cccc(OCCCN2CC[C@@H](O)C2)c1Cl [Example 2113, (R)-5-((4-chloro-5-((2′-chloro-3′-(3-(3-hydroxypyrrolidin-1-yl)propoxy)-2-methyl-[1,1′-biphenyl]-3-yl)methoxy)-2-(((cyclopropylmethyl)(1,3-dihydroxypropan-2-yl)amino)methyl)phenoxy)methyl)nicotinonitrile] |
| 8.00 to 9.68 | – | Cc1c(COc2cc(OCc3cncc(C#N)c3)c(CN(CC3CC3)C(C)(CO)CO)cc2Cl)cccc1-c1cccc(OCCCN2CC[C@@H](O)C2)c1Cl [Example 2114, (R)-5-((4-chloro-5-((2′-chloro-3′-(3-(3-hydroxypyrrolidin-1-yl)propoxy)-2-methyl-[1,1′-biphenyl]-3-yl)methoxy)-2-(((cyclopropylmethyl)(1,3-dihydroxy-2-methylpropan-2-yl)amino)methyl)phenoxy)methyl)nicotinonitrile] |
| 8.00 to 9.68 | – | Cc1c(COc2cc(OCc3cncc(C#N)c3)c(CN3CCOC[C@H]3CO)cc2Cl)cccc1-c1cccc(OCCCN2CC[C@@H](O)C2)c1Cl [Example 2115, 5-((4-chloro-5-((2′-chloro-3′-(3-((R)-3-hydroxypyrrolidin-1-yl)propoxy)-2-methyl-[1,1′-biphenyl]-3-yl)methoxy)-2-(((R)-3-(hydroxymethyl)morpholino)methyl)phenoxy)methyl)nicotinonitrile] |
| 8.00 to 9.68 | – | Cc1c(COc2cc(OCc3cncc(C#N)c3)c(CNC[C@H](O)CO)cc2Cl)cccc1-c1cccc(OCCCO)c1Cl [Example 2116, (S)-5-((4-chloro-5-((2′-chloro-3′-(3-hydroxypropoxy)-2-methyl-[1,1′-biphenyl]-3-yl)methoxy)-2-(((2,3-dihydroxypropyl)amino)methyl)phenoxy)methyl)nicotinonitrile] |
| 8.00 to 9.68 | – | Cc1c(COc2cc(OCc3cncc(C(N)=O)c3)c(CNC[C@H](O)CO)cc2Cl)cccc1-c1cccc(OCCCO)c1Cl [Example 2117, (S)-5-((4-chloro-5-((2′-chloro-3′-(3-hydroxypropoxy)-2-methyl-[1,1′-biphenyl]-3-yl)methoxy)-2-(((2,3-dihydroxypropyl)amino)methyl)phenoxy)methyl)nicotinamide] |
| 8.00 to 9.68 | – | Cc1c(COc2cc(OCc3cncc(C#N)c3)c(CNC(C)(CO)CO)cc2Cl)cccc1-c1cccc(OCCC(=O)NC[C@H](O)CO)c1Cl [Example 2118, (S)-3-((2-chloro-3′-((2-chloro-5-((5-cyanopyridin-3-yl)methoxy)-4-(((1,3-dihydroxy-2-methylpropan-2-yl)amino)methyl)phenoxy)methyl)-2′-methyl-[1,1′-biphenyl]-3-yl)oxy)-N-(2,3-dihydroxypropyl)propanamide] |
| 8.00 to 9.68 | – | Cc1c(COc2cc(OCc3cncc(C#N)c3)c(CNC(C)(CO)CO)cc2Cl)cccc1-c1cccc(OC[C@H]2CCN(CC(O)CO)C2)c1Cl (stereo partly drawn) [Example 2119, 5-((4-chloro-5-((2′-chloro-3′-(((3S)-1-(2,3-dihydroxypropyl)pyrrolidin-3-yl)methoxy)-2-methyl-[1,1′-biphenyl]-3-yl)methoxy)-2-(((1,3-dihydroxy-2-methylpropan-2-yl)amino)methyl)phenoxy)methyl)nicotinonitrile] |
| 8.00 to 9.68 | – | Cc1c(COc2cc(OCc3cncc(C#N)c3)c(CN3CCCC[C@H]3C(=O)O)cc2Cl)cccc1-c1cccc(OC[C@H]2CCN(CC(O)CO)C2)c1Cl (stereo partly drawn) [Example 2120, (2S)-1-(5-chloro-4-((2′-chloro-3′-(((3S)-1-(2,3-dihydroxypropyl)pyrrolidin-3-yl)methoxy)-2-methyl-[1,1′-biphenyl]-3-yl)methoxy)-2-((5-cyanopyridin-3-yl)methoxy)benzyl)piperidine-2-carboxylic Acid] |
| 8.00 to 9.68 | – | Cc1c(COc2cc(OCc3cncc(C#N)c3)c(CNCCN3CCOCC3)cc2Cl)cccc1-c1cccc(OCCCN2CC[C@@H](O)C2)c1C [Example 2122, (R)-5-((4-chloro-5-((3′-(3-(3-hydroxypyrrolidin-1-yl)propoxy)-2,2′-dimethyl-[1,1′-biphenyl]-3-yl)methoxy)-2-(((2-morpholinoethyl)amino)methyl)phenoxy)methyl)nicotinonitrile] |
| – | 2 | Cc1c(OCCCN2CC[C@@H](O)C2)cccc1-c1cccc(OCc2cc(O)c(CN(C)C)cc2Cl)c1C [Example 2123, (R)-1-(3-((3′-((2-chloro-4-((dimethylamino)methyl)-5-hydroxybenzyl)oxy)-2,2′-dimethyl-[1,1′-biphenyl]-3-yl)oxy)propyl)pyrrolidin-3-ol] |
| 8.00 to 9.68 | – | Cc1c(COc2cc(OCc3cncc(C#N)c3)c(CN3CC[C@@H](O)C3)cc2Cl)cccc1-c1cccc(OCCCN2CC[C@@H](O)C2)c1C [Example 2201, 5-((4-chloro-2-(((R)-3-hydroxypyrrolidin-1-yl)methyl)-5-((3′-(3-((R)-3-hydroxypyrrolidin-1-yl)propoxy)-2,2′-dimethylbiphenyl-3-yl)methoxy)phenoxy)methyl)nicotinonitrile] |
| 8.00 to 9.68 | – | Cc1c(COc2cc(OCc3cncc(C#N)c3)c(CN3CCCC[C@H]3C(=O)O)cc2Cl)cccc1-c1cccc(OCCCN2CCCCC2CO)c1C (stereo partly drawn) [Example 2202, (2S)-1-(5-chloro-2-((5-cyanopyridin-3-yl)methoxy)-4-((3′-(3-(2-(hydroxymethyl)piperidin-1-yl)propoxy)-2,2′-dimethylbiphenyl-3-yl)methoxy)benzyl)piperidine-2-carboxylic Acid] |
| 8.00 to 9.68 | – | Cc1c(COc2cc(OCc3cncc(C#N)c3)c(CN3CCCC[C@H]3C(=O)O)cc2Cl)cccc1-c1cccc(OCCCN2CC[C@H](CO)[C@H](O)C2)c1C [Example 2203, (2S)-1-(5-chloro-2-((5-cyanopyridin-3-yl)methoxy)-4-((3′-(3-((3 S,4R)-3-hydroxy-4-(hydroxymethyl)piperidin-1-yl)propoxy)-2,2′-dimethylbiphenyl-3-yl)methoxy)benzyl)piperidine-2-carboxylic Acid] |
| 8.00 to 9.68 | – | Cc1c(COc2cc(OCc3cncc(C#N)c3)c(CN3CCCC[C@H]3C(=O)O)cc2Cl)cccc1-c1cccc(OCCCN2CCC[C@H](C(=O)O)C2)c1C [Example 2204, (2S)-1-(4-((3′-(3-((S)-3-carboxypiperidin-1-yl)propoxy)-2,2′-dimethylbiphenyl-3-yl)methoxy)-5-chloro-2-((5-cyanopyridin-3-yl)methoxy)benzyl)piperidine-2-carboxylic Acid] |
